Values quoted from earlier work as cited in patent US20160310431A1, “Three-Phase System for Modified Release of a Non-Steroidal Antiinflammatory” (priority 2013, published 2016).
Like-named read-outs stand apart in the source and are kept apart here.

Experiments:
[1] = intramuscular administration
[2] = not given; remark: listed apart in the source
COX-1 and COX-2 = details: COX-1 vs COX-2
[3] = intramuscular administration, single dose of 30 mg

Compound | appearance of analgesic effect [1] | duration of analgesic effect [1] | peak of analgesic effect [1] | maximum plasma concentration [3] | time at which maximum plasma concentration appears [3] | time at which maximum plasma concentration appears (intravenous administration) | time at which maximum plasma concentration appears (oral administration, tablets or capsules) | absorption (orally and parenterally) | metabolized via the liver by conjugation ([2]; inactive metabolites) | excreted as a conjugated metabolite ([2]; renal excretion) | excreted as the drug without changes ([2]; renal excretion) | excreted hydroxylated ([2]; renal excretion) | binding to plasma proteins (plasma proteins) | selectivity for COX isoforms (COX-1 and COX-2)
O=C(c1ccccc1)c1ccc2n1CCC2C(=O)O (centres unmarked) [Ketorolac tromethamine] | first half hour | 4 to 6 h | 1 to 2 h | 2.2 µg/mL | 50 min | 5.4 min | 180 min | rapidly and completely absorbed | – | – | – | – | – | –
O=C(c1ccccc1)c1ccc2n1CCC2C(=O)O (centres unmarked) [Ketorolac] | – | – | – | – | – | – | – | – | 21% | 21.9% | 60.2% | 11.5% | 99% | not being selective for any of the isoforms
